The text below walks through data of PubChem BioAssay AID1259407 (Chemical Carcinogenesis Research Information System (CCRIS), 2018).

This series concerns CCRIS mutagenicity, Ames/micronucleus/aberration tests. Nature of the series: CCRIS mutagenicity studies.
The mark [1] stands for this setting: Test System: AMES SALMONELLA TYPHIMURIUM, Strain/Indicator: TA98, Metabolic Activation: NONE, Method: PREINCUBATION
Setting [2] is: Test System: AMES SALMONELLA TYPHIMURIUM, Strain/Indicator: TA100, Metabolic Activation: NONE, Method: PREINCUBATION
The mark [3] stands for this setting: Test System: AMES SALMONELLA TYPHIMURIUM, Strain/Indicator: TA1535, Metabolic Activation: NONE, Method: PREINCUBATION

“Also recorded” adds a separate entry of the source. The source made the active and inactive calls. No rule for the calls is given here.

In the case of `Cc1ccccc1C#N`, the mutagenic call by setting is: (Test System: AMES SALMONELLA TYPHIMURIUM, Strain/Indicator: TA97, Metabolic Activation: HAMSTER, LIVER, S-9, AROCLOR 1254 (10 OR 30%), Method: PREINCUBATION) “inactive; negative”; (Test System: AMES SALMONELLA TYPHIMURIUM, Strain/Indicator: TA97, Metabolic Activation: NONE, Method: PREINCUBATION) “inactive; negative”; (Test System: AMES SALMONELLA TYPHIMURIUM, Strain/Indicator: TA97, Metabolic Activation: RAT, LIVER, S-9, AROCLOR 1254 (10%), Method: PREINCUBATION) “inactive; negative”; (Test System: AMES SALMONELLA TYPHIMURIUM, Strain/Indicator: TA97, Metabolic Activation: RAT, LIVER, S-9, AROCLOR 1254 (30%), Method: PREINCUBATION) “inactive; negative”; (Test System: AMES SALMONELLA TYPHIMURIUM, Strain/Indicator: TA98, Metabolic Activation: HAMSTER, LIVER, S-9, AROCLOR 1254 (10 OR 30%), Method: PREINCUBATION) “inactive; negative”; under setting [1], “inactive; negative”. The mutagenic call is “inactive; negative” (Test System: AMES SALMONELLA TYPHIMURIUM, Strain/Indicator: TA98, Metabolic Activation: RAT, LIVER, S-9, AROCLOR 1254 (10 OR 30%), Method: PREINCUBATION); “inactive; negative” (Test System: AMES SALMONELLA TYPHIMURIUM, Strain/Indicator: TA100, Metabolic Activation: HAMSTER, LIVER, S-9, AROCLOR 1254 (10 OR 30%), Method: PREINCUBATION); “inactive; negative” under setting [2]; “inactive; negative” (Test System: AMES SALMONELLA TYPHIMURIUM, Strain/Indicator: TA100, Metabolic Activation: RAT, LIVER, S-9, AROCLOR 1254 (10%), Method: PREINCUBATION); “inactive; negative” (Test System: AMES SALMONELLA TYPHIMURIUM, Strain/Indicator: TA100, Metabolic Activation: RAT, LIVER, S-9, AROCLOR 1254 (30%), Method: PREINCUBATION); “inactive; negative” (Test System: AMES SALMONELLA TYPHIMURIUM, Strain/Indicator: TA1535, Metabolic Activation: HAMSTER, LIVER, S-9, AROCLOR 1254 (10 OR 30%), Method: PREINCUBATION). For the same compound, the mutagenic call runs as follows: under setting [3], “inactive; negative”; (Test System: AMES SALMONELLA TYPHIMURIUM, Strain/Indicator: TA1535, Metabolic Activation: RAT, LIVER, S-9, AROCLOR 1254 (10%), Method: PREINCUBATION) “inactive; negative”; (Test System: AMES SALMONELLA TYPHIMURIUM, Strain/Indicator: TA1535, Metabolic Activation: RAT, LIVER, S-9, AROCLOR 1254 (30%), Method: PREINCUBATION) “inactive; negative”; (Test System: MOUSE LYMPHOMA, Strain/Indicator: L5178Y (TK+/TK-), Metabolic Activation: RAT, LIVER, S-9, AROCLOR 1254, Method: SUSPENSION/PLATE) “active; positive. reevaluation of results: positive”; (Test System: Mouse lymphoma, Strain/Indicator: L5178Y (tk+/tk-), Metabolic Activation: None, Method: Suspension/plate) “inactive; negative”.

For `CC12OOC1(C)c1ccc3cccnc3c1O2` (centres undefined), under setting [2], the mutagenic call is “inactive; negative”.

Consider `OC1C=Cc2cc3c(cc2C1O)-c1cccc2cccc-3c12` (centres undefined), for which the mutagenic call (Test System: AMES SALMONELLA TYPHIMURIUM, Strain/Indicator: TA100, Metabolic Activation: RAT, LIVER, S-9, AROCLOR 1254, Method: STANDARD PLATE) is “active; positive”.

As for `O=C(O)CNC(=O)c1ccc([N+](=O)[O-])cc1`, the mutagenic call by setting is: (Test System: AMES SALMONELLA TYPHIMURIUM, Strain/Indicator: TA98, Metabolic Activation: HAMSTER, LIVER, S-9, AROCLOR 1254 (30%), Method: PREINCUBATION) “inactive; negative”; under setting [1], “active; positive”; (Test System: AMES SALMONELLA TYPHIMURIUM, Strain/Indicator: TA98, Metabolic Activation: RAT, LIVER, S-9, AROCLOR 1254 (30%), Method: PREINCUBATION) “inactive; negative”; (Test System: AMES SALMONELLA TYPHIMURIUM, Strain/Indicator: TA100, Metabolic Activation: HAMSTER, LIVER, S-9, AROCLOR 1254 (5, 10 OR 30%), Method: PREINCUBATION) “inactive; negative”; under setting [2], “active; positive”; (Test System: AMES SALMONELLA TYPHIMURIUM, Strain/Indicator: TA100, Metabolic Activation: RAT, LIVER, S-9, AROCLOR 1254 (5, 10 OR 30%), Method: PREINCUBATION) “inactive; negative”. The mutagenic call was “inactive; negative” (Test System: AMES SALMONELLA TYPHIMURIUM, Strain/Indicator: TA1535, Metabolic Activation: HAMSTER, LIVER, S-9, AROCLOR 1254 (5, 10 OR 30%), Method: PREINCUBATION); “inactive; negative” under setting [3]; “inactive; negative” (Test System: AMES SALMONELLA TYPHIMURIUM, Strain/Indicator: TA1535, Metabolic Activation: RAT, LIVER, S-9, AROCLOR 1254 (5, 10 OR 30%), Method: PREINCUBATION); “active; positive” (Test System: AMES SALMONELLA TYPHIMURIUM, Strain/Indicator: TA1538, Metabolic Activation: NONE, Method: PREINCUBATION).

With `Nc1ccc(NC(=O)c2ccc(N)cc2)cc1`, the mutagenic call by setting is: under setting [1], “inactive; negative”; (Test System: AMES SALMONELLA TYPHIMURIUM, Strain/Indicator: TA98, Metabolic Activation: RAT LIVER S-9, PHENOBARBITAL AND BETA-NAPHTHOFLAVONE, Method: PREINCUBATION) “active; positive”; under setting [2], “inactive; negative”; (Test System: AMES SALMONELLA TYPHIMURIUM, Strain/Indicator: TA100, Metabolic Activation: RAT LIVER S-9, PHENOBARBITAL AND BETA-NAPHTHOFLAVONE, Method: PREINCUBATION) “inactive; negative”; under setting [3], “inactive; negative”; (Test System: AMES SALMONELLA TYPHIMURIUM, Strain/Indicator: TA1535, Metabolic Activation: RAT LIVER S-9, PHENOBARBITAL AND BETA-NAPHTHOFLAVONE, Method: PREINCUBATION) “inactive; negative”. Besides, the mutagenic call is “active; positive” (Test System: AMES SALMONELLA TYPHIMURIUM, Strain/Indicator: TA1537, Metabolic Activation: RAT LIVER S-9, PHENOBARBITAL AND BETA-NAPHTHOFLAVONE, Method: PREINCUBATION); “inactive; negative” (Test System: E.COLI, Strain/Indicator: WP2UVRA, Metabolic Activation: NONE, Method: PREINCUBATION); “inactive; negative” (Test System: E.COLI, Strain/Indicator: WP2UVRA, Metabolic Activation: RAT LIVER S-9, PHENOBARBITAL AND BETA-NAPHTHOFLAVONE, Method: PREINCUBATION).

On to `CN(C)CCNC(=O)c1cccc2c(=O)c3ccccc3sc12`, for which the mutagenic call (Test System: AMES SALMONELLA TYPHIMURIUM, Strain/Indicator: TA1537, Metabolic Activation: NONE, Method: STANDARD PLATE) was “active; positive”.

Consider `COc1cc(-c2ccc(-[n+]3nc(-c4ccccc4)nn3-c3ccc([N+](=O)[O-])cc3)c(OC)c2)ccc1-[n+]1nc(-c2ccccc2)nn1-c1ccc([N+](=O)[O-])cc1`, for which the mutagenic call is, setting by setting: (Test System: AMES SALMONELLA TYPHIMURIUM, Strain/Indicator: TA100, Metabolic Activation: NONE, Method: STANDARD PLATE) “active; positive”; (Test System: AMES SALMONELLA TYPHIMURIUM, Strain/Indicator: TA100, Metabolic Activation: S-9 MIX, Method: STANDARD PLATE) “active; positive”.

Consider `CNC(C)Cc1ccc2c(c1)OCO2` (centres undefined), for which the mutagenic call was “inactive; negative. n-nitroso-3,4-methylenedioxymethamphetamine (500-900 ug/ml), expected” (End Point: In vitro micronucleus, Test System: Chinese hamster lung fibroblast, Metabolic Activation: Hamster, Liver, S-9, Phenobarbital sodium and 5,6-benzoflavone); “inactive; negative. n-nitroso-3,4-methylenedioxymethamphetamine (200-600 ug/ml), expected; also recorded: inactive; negative. n-nitroso-3,4-methylenedioxymethamphetamine (50-300 ug/ml), expected t” (End Point: In vitro micronucleus, Test System: Chinese hamster lung fibroblast, Metabolic Activation: None); “inactive; negative. n-nitroso-3,4-methylenedioxymethamphetamine (500-900 ug/ml), expected” (End Point: In vitro micronucleus, Test System: Chinese hamster lung fibroblast, Metabolic Activation: Rat, Liver, S-9, Phenobarbital sodium and 5,6-benzoflavone).
